Assay results published in patent US8592484B2, “Cosmetic composition containing calcium citrate and N-acylated aminoalcohol derivative to prevent dry skin and signs of cutaneous ageing” (Cognis IP Management GmbH, priority 2009, dated 2013).
Values joined by “and” are separate entries in the source; they are usually repeats but may differ in a detail not shown here. Equal values may be shown once. Marks after values point to notes of the source that are not given here.

What was measured:
human keratinocytes [1] = experiment: Keratinocyte differentiation: involucrin by ELISA in primary culture of human keratinocytes; assay type: cell-based; conditions: for Involucrin (in % +/− SEM): 1 day incubation; for effect on the synthesis of the keratinocyte differentiation marker involucrin (in words): at the tested concentrations
Procedure: The purpose was to evaluate the potential of the products to stimulate the differentiation of human keratinocytes into corneocytes and therefore the formation of an optimal skin barrier. The products were tested on primary culture of human keratinocytes by measuring the quantity of synthesized involucrin through an ELISA method. Involucrin is a rod shaped protein of 68 kD released by keratinocytes of early spinous layers up to granular layer of human epidermis.
(§1) Human keratinocytes were seeded in growth medium (standard medium MCDB153 completed by Fetal Calf Serum at 2%). After 3-4 days of incubation at 37° C., CO2=5%, the growth medium was exchanged by standard medium MCDB153 without FCS (untreated control), and with a range of concentrations of products to be tested. After 1 day of incubation at 37° C., CO2=5%, the lack of cytotoxicity of the different product and doses tested was recorded using MTT test, and the level of involucrin was measured by an ELISA method.
The results are expressed in % versus control and presented as a mean+/−SEM (standard error of mean) of 2 or 3 assays (different donors of keratinocytes) in duplicate or triplicate.

human keratinocytes [2] = experiment: MTT test, viability of human keratinocytes; assay type: cell-based; conditions: at the concentrations tested for involucrin
Procedure: as §1

ceramidase = experiment: Ceramidase inhibition, enzymatic extract of PMA-activated HL60 cells, [14C]-C16 ceramide substrate; assay type: biochemical; conditions: 1 hour at 37° C., mean of triplicate
Procedure: HL60 cells activated with Phorbol 12-myristate 13-acetate (PMA) at 5 nM were cultured in 175 cm^2 flasks. […] The supernatant obtained after centrifugation constituted the enzymatic extract.
The substrate [^14C]—C16 ceramide (N-palmitoyl-D-Sphingosine) was prepared as follows:
Evaporation of the organic phase and dissolution in distilled water. […] After evaporation and addition of Triton and cholate, the purified substrate was solubilised in distilled water.
The reaction mixture was incubated at 37° C. during 1 hour. The reaction mixture consisted of 5 μl MgCl2 (50 mM), 25 μl enzymatic extract or buffer; 7.5 μl substrate and 12.5 μl product to be tested. The products to be tested were prepared 4× concentrated in buffer at the tested pH and contained 1% of ethanol in final.
The quantification of enzymatic degradation of substrate was realized by measuring of radioactivity in heptane phase. […] The mixture was vortexed and centrifuged at 12 000 g 5 minutes. […] Results are expressed as the % of control.

For `[Ca+2].[Cl-].[Cl-]` [CaCl2, Calcium chloride, reference compound], the “Involucrin (in % +/− SEM)” value (human keratinocytes [1]; CaCl2 dose 0.1 mM (Ca2+: 0.1 mM)) was 21.9 +/− 5.3 ** %, the “effect on the synthesis of the keratinocyte differentiation marker involucrin (in words)” value (human keratinocytes [1]) was “significantly enhance” and the “Involucrin (in % +/− SEM)” value (human keratinocytes [1]; dose 0.013 mM (Ca2+: 0.013 mM)) was 3.4 +/− 4.6^ %. For the same compound, the “Involucrin (in % +/− SEM)” value (human keratinocytes [1]; dose 0.026 mM (Ca2+: 0.026 mM)) was −1.4 +/− 4.6 ^ %, the “Involucrin (in % +/− SEM)” value (human keratinocytes [1]; dose 0.3 mM (Ca2+ 0.3 mM)) was 84.4 +/− 1.9 *** % and the “viability (MTT test) of the human keratinocytes” value (human keratinocytes [2]) was “not significantly changed”.

For `CCCCCCCC/C=C\CCCCCCCCNCCO` [N-Oleyl-ethanolamine, reference compound], the “Ceramidase activity in %/control” value (ceramidase; dose 5 μM) was 98%, the “Ceramidase activity in %/control” value (ceramidase; dose 50 μM) was 94% and the “Ceramidase activity in %/control” value (ceramidase; dose 500 μM) was 79%.

For `CCCCCCCC/C=C\CCCCCCCCNCC(O)CO` (stereo not shown) [N-oleyl-(3 amino-1,2-propanediol)], the “Ceramidase activity in %/control” value (ceramidase; dose 5 μM) was 81%, the “Ceramidase activity in %/control” value (ceramidase; dose 50 μM) was 78% and the “Ceramidase activity in %/control” value (ceramidase; dose 500 μM) was 71%.

For `O.O.O.O.O=C([O-])CC(O)(CC(=O)[O-])C(=O)[O-].O=C([O-])CC(O)(CC(=O)[O-])C(=O)[O-].[Ca+2].[Ca+2].[Ca+2]` [Tricalcium dicitrate tetrahydrate, Tricalcium citrate tetrahydrate], the “effect on keratinocytes differentiation compared with Calcium chloride” value (human keratinocytes [1]; at equimolar doses of Ca2+, p<0.001 for Ca2+ 0.026 and 0.1 mM) was “more potent”, the “effect on the synthesis of the keratinocyte differentiation marker involucrin (in words)” value (human keratinocytes [1]) was “significantly enhance” and the “Involucrin (in % +/− SEM)” value (human keratinocytes [1]; dose 0.0044 mM, 0.00025 % w/v (Ca2+: 0.013 mM)) was 0.5 +/− 2.6^ % and 0.5 +/− 2.6%. The “Involucrin (in % +/− SEM)” value (human keratinocytes [1]; dose 0.0088 mM, 0.00050 % w/v (Ca2+: 0.026 mM)) was 31.6 +/− 2.9 *** %, the “Involucrin (in % +/− SEM)” value (human keratinocytes [1]; dose 0.033 mM (Ca2+: 0.1 mM)) was 73.4 +/− 3.7 *** % and the “Involucrin (in % +/− SEM)” value (human keratinocytes [1]; tricalcium dicitrate dose 0.1 mM (Ca2+ 0.3 mM)) was 101.7 +/− 7.2 *** %. For the same compound, the “viability (MTT test) of the human keratinocytes” value (human keratinocytes [2]) was “not significantly changed”.
